Laboratory results as given in patent US20120004244A1, “Bis Aromatic Compounds for Use as LTC4 Synthase Inhibitors” (BIOLIPOX AB, priority 2009, published 2012).

Target: T1, Recombinant human LTC4 synthase (Homo sapiens, UniProt Q16873)
T1 construct: made in house; host or cells: Pichia pastoris ('Piccia pastoralis' [sic])
T1 sequence (Q16873 1-150): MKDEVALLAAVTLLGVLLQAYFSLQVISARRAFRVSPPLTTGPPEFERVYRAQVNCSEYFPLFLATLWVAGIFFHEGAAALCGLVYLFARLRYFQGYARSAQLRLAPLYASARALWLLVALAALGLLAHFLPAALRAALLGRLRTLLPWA
Test: LTC4 synthase in vitro assay (LTA4 to LTC4, HTRF detection)
Format: biochemical
Details: not given
How it was run: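 Purified recombinant human LTC4 synthase expressed in Pichia (0.5 μg/mL total protein) was preincubated with inhibitor at 10 μM final for 10 min at room temperature in PBS pH 7.4 with 5 mM GSH. LTA4 was then added at 2.5 μM final, and after 5 min at room temperature LTC4 was detected by HTRF.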

| Structure (SMILES) | IC50 [nM] |
| --- | --- |
| CN(c1ccc(Cl)cc1)c1ccc(C(=O)c2ccc(C(=O)Cc3ccccc3)c(C(=O)O)c2)nc1 [5:16, 5-{5-[(4-Chlorophenyl)(methyl)amino]picolinoyl}-2-phenylacetylbenzoic acid] | 257 |
| COc1ccc(C(=O)Nc2ccc(C(=O)c3ccc(N(C)c4ccccc4)cn3)cc2C(=O)O)c(OC)c1 [3:34, 2-(2,4-Dimethoxybenzamido)-5-{5-[(methyl)(phenyl)amino]picolinoyl}benzoic acid] | 163 |
| CN(c1ccc(Cl)cc1)c1ccc(C(=O)c2ccc(C(=O)c3ccc4c(c3)OCO4)c(C(=O)O)c2)nc1 [5:24, 5-{5-[(4-Chlorophenyl)(methyl)amino]picolinoyl}-2-(3,4-methylenedioxy-benzoyl)benzoic acid] | 77 |
| CN(c1ccc(Cl)cc1)c1ccc(C(=O)c2ccc(N3CCC(C(F)(F)F)CC3)c(C(=O)O)c2)nc1 [2:22, 5-{5-[(4-Chlorophenyl)(methyl)amino]picolinoyl}-2-(4-trifluoromethyl-1-piperidinyl)benzoic acid] | 2000 |
| CN(c1ccc(C(F)(F)F)cc1)c1ccc(C(=O)c2ccc(C(=O)c3ccccc3)c(C(=O)O)c2)nc1 [5:2, 2-Benzoyl-5-{5-[(methyl)(4-trifluoromethylphenyl)amino]picolinoyl}benzoic acid] | 78 |
| CN(c1ccc(Cl)cc1)c1ccc(C(=O)c2ccc(NS(=O)(=O)c3ccccc3)c(C(=O)O)c2)nc1 [4:1, 5-{5-[(4-Chlorophenyl)(methyl)amino]picolinoyl}-2-(phenylsulfonamido)benzoic acid] | 39 |
| CN(c1ccc(Cl)cc1)c1ccc(C(=O)c2ccc(C(=O)C3(c4ccccc4)CC3)c(C(=O)O)c2)nc1 [5:19] | 32 |
| CN(c1ccc(Cl)cc1)c1ccc(C(=O)c2ccc(C(=O)c3cccc(OC(F)(F)F)c3)c(C(=O)O)c2)nc1 [5:28] | 60 |
| CN(c1ccc(Cl)cc1)c1ccc(C(=O)c2ccc(-n3nc(C(F)(F)F)cc3-c3ccccc3)c(C(=O)O)c2)nc1 [18:3] | 177 |
| CN(c1ccc(Cl)cc1)c1ccc(C(=O)c2ccc(NC(=O)c3cccc4c3OCO4)c(C(=O)O)c2)nc1 [3:28, 5-{5-[(4-Chlorophenyl)(methyl)amino]picolinoyl}-2-(2,3-methylenedioxy-benzamido)benzoic acid] | 50 |
| CN(c1ccc(Cl)cc1)c1ccc(C(=O)c2ccc(NC(=O)c3ccc4c(c3)OC(F)(F)O4)c(C(=O)O)c2)nc1 [3:17, 5-{5-[(4-Chlorophenyl)(methyl)amino]picolinoyl}-2-[3,4-(difluoromethylene-dioxy)benzamido]benzoic acid] | 38 |
| CN(c1ccc(Cl)cc1)c1ccc(C(=O)c2ccc(-c3ccccc3Cl)c(C(=O)O)c2)nc1 [21:3, 2′-Chloro-4-{5-[(4-chlorophenyl)(methyl)amino]picolinoyl}biphenyl-2-carboxylic acid] | 349 |
| O=C(c1ccc(-n2nc(-c3ccccc3)cc2C(F)(F)F)c(C(=O)O)c1)c1ccc(N(CC2CC2)c2ccc(Cl)cc2)cn1 [18:4, 5-{5-[(4-Chlorophenyl)(cyclopropylmethyl)amino]picolinoyl}-2-(3-phenyl-5-trifluoromethylpyrazol-1-yl)benzoic acid] | 65 |
| COc1cc(C(=O)Nc2ccc(C(=O)c3ccc(N(C)c4ccc(Cl)cc4)cn3)cc2C(=O)O)cc(OC)c1OC [3:16, 5-{5-[(4-Chlorophenyl)(methyl)amino]picolinoyl}-2-(3,4,5-trimethoxybenz-amido)benzoic acid] | 157 |
| COc1ccc(CNc2ccc(C(=O)c3ccc(N(C)c4ccc(Cl)cc4)cn3)cc2C(=O)O)cc1 [2:6, 5-{5-[(4-Chlorophenyl)(methyl)amino]picolinoyl}-2-(4-methoxybenzylamino)benzoic acid] | 151 |
| CN(c1ccc(Cl)cc1)c1ccc(C(=O)c2cc(C(=O)O)c(Oc3ccccc3)cn2)cc1 [8:2] | 302 |
| CS(=O)(=O)c1ccc(Oc2ccc(C(=O)c3ccc(N(CC4CC4)c4ccc(Cl)cc4)cn3)cc2C(=O)O)cc1 [1:37, 5-{5-[(4-Chlorophenyl)(cyclopropylmethyl)amino]picolinoyl}-2-(4-methylsulfonylphenoxy)benzoic acid] | 300 |
| CN(c1ccc(Cl)cc1)c1ccc(C(=O)c2ccc(C(=O)C(C)(C)C)c(C(=O)O)c2)nc1 [5:13, 5-{5-[(4-Chlorophenyl)(methyl)amino]picolinoyl}-2-(2,2-dimethylpropionyl)-benzoic acid] | 491 |
| COc1ccccc1C(=O)Nc1ccc(C(=O)c2ccc(N(C)c3ccc(Cl)cc3)cn2)cc1C(=O)O [3:5, 5-{5-[(4-Chlorophenyl)(methyl)amino]picolinoyl}-2-(2-methoxybenzamido)-benzoic acid] | 32 |

| Structure (SMILES) | IC50 [nM] |
| --- | --- |
| COc1ccc(C(=O)Nc2ccc(C(=O)c3ccc(N(CC4CC4)c4ccc(Cl)cc4)cn3)cc2C(=O)O)cc1 [3:7, 5-{5-[(4-Chlorophenyl)(cyclopropylmethyl)amino]picolinoyl}-2-(4-methoxy-benzamido)benzoic acid] | 31 |
| COc1ccc(C(=O)c2ccc(C(=O)c3ccc(N(C)c4ccc(Cl)cc4)cn3)cc2C(=O)O)c(OC)c1 [5:10, 5-{5-[(4-Chlorophenyl)(methyl)amino]picolinoyl}-2-(2,4-dimethoxybenzoyl)-benzoic acid] | 68 |
| CN(c1ccc(Cl)cc1)c1ccc(C(=O)c2ccc(-c3cc(Cl)ccc3Cl)c(C(=O)O)c2)nc1 [21:7, 2′,5′-Dichloro-4-{5-[(4-chlorophenyl)(methyl)amino]picolinoyl}biphenyl-2-carboxylic acid] | 269 |
| CN(c1ccc(Cl)cc1)c1ccc(C(=O)c2ccc(-n3nncc3-c3ccccc3)c(C(=O)O)c2)nc1 [17:1, 5-{5-[(4-Chlorophenyl)(methyl)amino]picolinoyl}-2-(5-phenyl-1,2,3-triazol-1-yl)-benzoic acid] | 116 |
| COc1ccccc1C(=O)Nc1ccc(C(=O)c2ccc(N(CC3CC3)c3ccc(Cl)cc3)cn2)cc1C(=O)O [3:8, 5-{5-[(4-Chlorophenyl)(cyclopropylmethyl)amino]picolinoyl}-2-(2-methoxy-benzamido)benzoic acid] | 40 |
| CN(c1ccc(Cl)cc1)c1ccc(C(=O)c2ccc(Oc3ccccc3S(C)(=O)=O)c(C(=O)O)c2)nc1 [1:48, 5-{5-[(4-Chlorophenyl)(methyl)amino]picolinoyl}-2-(2-methylsulfonylphenoxy)-benzoic acid] | 632 |
| COc1ccc(C(=O)Nc2ccc(C(=O)c3ccc(N(C)c4ccc(Cl)cc4)cn3)cc2C(=O)O)c(Cl)c1OC [3:36, 2-(2-Chloro-3,4-dimethoxybenzamido)-5-{5-[(4-chlorophenyl)(methyl)amino]-picolinoyl}benzoic acid] | 39 |
| O=C(c1ccc(Oc2ccccc2O)c(C(=O)O)c1)c1ccc(N(CC2CC2)c2ccc(Cl)cc2)cn1 [1:28, 5-{5-[(4-Chlorophenyl)(cyclopropylmethyl)amino]picolinoyl}-2-(2-hydroxyphenoxy)benzoic acid] | 44 |
| CN(c1ccc(Cl)cc1)c1ccc(C(=O)c2ccc(-c3ccccc3OC(F)(F)F)c(C(=O)O)c2)nc1 [21:6, 4-{5-[(4-chlorophenyl)(methyl)amino]picolinoyl}-2′-trifluoromethoxy-biphenyl-2-carboxylic acid] | 217 |
| CN(c1ccc(Cl)cc1)c1ccc(C(=O)c2ccc(C(=O)c3ccc(C(F)(F)F)cc3)c(C(=O)O)c2)nc1 [5:11] | 216 |
| CN(c1ccc(Cl)cc1)c1ccc(C(=O)c2ccc(NCc3ccc(F)cc3)c(C(=O)O)c2)nc1 [2:10, 5-{5-[(4-Chlorophenyl)(methyl)amino]picolinoyl}-2-(4-fluorobenzylamino)benzoic acid] | 157 |
| Cc1ccc(N(C)c2ccc(C(=O)c3ccc(C(=O)c4ccccc4)c(C(=O)O)c3)nc2)cc1 [5:21] | 250 |
| CN(c1ccc(Cl)cc1)c1ccc(C(=O)c2ccc(C(=O)C3CCCCC3)c(C(=O)O)c2)nc1 [5:18, 5-{5-[(4-Chlorophenyl)(methyl)amino]picolinoyl}-2-cyclohexylcarbonylbenzoic acid] | 246 |
| CN(c1ccc(Cl)cc1)c1ccc(C(=O)c2ccc(NC(=O)c3ccccc3C#N)c(C(=O)O)c2)nc1 [3:20, 5-{5-[(4-Chlorophenyl)(methyl)amino]picolinoyl}-2-(2-cyanobenzamido)benzoic acid] | 3000 |
| COc1ccc(COc2ccc(C(=O)c3ccc(N(C)c4ccc(Cl)cc4)cn3)cc2C(=O)O)cc1 [12:1, 5-{5-[(4-Chlorophenyl)(methyl)amino]picolinoyl}-2-(4-methoxybenzyloxy)benzoic acid] | 380 |
| O=C(c1ccc(Oc2ccccc2CCCO)c(C(=O)O)c1)c1ccc(N(CC2CC2)c2ccc(Cl)cc2)cn1 [1:36, 5-{5-[(4-Chlorophenyl)(cyclopropylmethyl)amino]picolinoyl}-2-[2-(3-hydroxypropyl)phenoxy]benzoic acid] | 116 |
| O=C(c1ccc(Oc2ccccc2)c(C(=O)O)c1)c1ccc(N(CC2CC2)c2cccc(C(F)(F)F)c2)cn1 [1:14, 5-{5-[(Cyclopropylmethyl)(3-trifluoromethylphenyl)amino]picolinoyl}-2-phenoxybenzoic acid] | 197 |
| CN(c1ccc(Cl)cc1)c1ccc(C(=O)c2ccc(NC3CCC(C(C)(C)C)CC3)c(C(=O)O)c2)nc1 (centres unmarked) [2:2, 2-(4-tert-Butylcyclohexylamino)-5-{5-[(4-chlorophenyl)(methyl)amino]picolinoyl}-benzoic acid] | 66 |
| CN(c1ccc(Cl)cc1)c1ccc(C(=O)c2ccc(Oc3ccccc3)c(C(=O)O)c2)nc1 [1:1, 5-{5-[(4-Chlorophenyl)(methyl)amino]picolinoyl}-2-phenoxybenzoic acid] | 110 |

Same assay, conditions: 5 min; total concentration of title compound in the assay 10 μM

| Structure (SMILES) | inhibition at 10 µM [%] |
| --- | --- |
| CN(c1ccc(Cl)cc1)c1ccc(C(=O)c2cc(C(=O)O)c(Oc3ccccc3)cn2)cc1 [8:2] | 99 |
| CN(c1ccc(Cl)cc1)c1ccc(C(=O)c2ccc(-n3nncc3-c3ccccc3)c(C(=O)O)c2)nc1 [17:1, 5-{5-[(4-Chlorophenyl)(methyl)amino]picolinoyl}-2-(5-phenyl-1,2,3-triazol-1-yl)-benzoic acid] | 98 |
| CN(c1ccc(Cl)cc1)c1ccc(C(=O)c2ccc(Oc3ccccc3S(C)(=O)=O)c(C(=O)O)c2)nc1 [1:48, 5-{5-[(4-Chlorophenyl)(methyl)amino]picolinoyl}-2-(2-methylsulfonylphenoxy)-benzoic acid] | 95 |
| O=C(c1ccc(Oc2ccccc2)c(C(=O)O)c1)c1ccc(N(CC2CC2)c2cccc(C(F)(F)F)c2)cn1 [1:14, 5-{5-[(Cyclopropylmethyl)(3-trifluoromethylphenyl)amino]picolinoyl}-2-phenoxybenzoic acid] | 100 |
| CN(c1ccc(Cl)cc1)c1ccc(C(=O)c2ccc(Oc3ccccc3)c(C(=O)O)c2)nc1 [1:1, 5-{5-[(4-Chlorophenyl)(methyl)amino]picolinoyl}-2-phenoxybenzoic acid] | 98 |

Same assay, conditions: compound concentration 3 μM

| Structure (SMILES) | inhibition at 3 µM [%] |
| --- | --- |
| CN(c1ccc(Cl)cc1)c1ccc(C(=O)c2ccc(NS(=O)(=O)c3ccccc3)c(C(=O)O)c2)nc1 [4:1, 5-{5-[(4-Chlorophenyl)(methyl)amino]picolinoyl}-2-(phenylsulfonamido)benzoic acid] | 100 |
